Measured values from patent US20070128217A1 (priority 2003, published 2007).

Key:
[1] = test system: antibodies in sera from SARS patients (sera 1a, 1b, 2, 6, 37, 62, London, SARS-yellow, SARS-green); format: binding, human; design: Binding of serum 6 to linear peptides of protein X1 of SARS-CoV Urbani / Binding of serum 37 to linear peptides of protein X1 of SARS-CoV Urbani / Binding of serum 6 to looped/cyclic peptide (PEPSCAN-ELISA) / Binding of serum 37 to looped/cyclic peptide (PEPSCAN-ELISA) / Binding of serum 37 to looped/cyclic peptides of protein X1 of SARS-CoV Urbani / Binding of serum 6 to linear peptides of protein X2 / Binding of serum 37 to linear peptides of protein X2 / Binding of serum 37 to looped/cyclic peptides of protein X2 of SARS-CoV Urbani / Binding of serum 6 to linear peptides of protein M of SARS-CoV Urbani / Binding of serum 37 to linear peptides of protein M of SARS-CoV Urbani / Binding of serum 6 to looped/cyclic peptides of protein M of SARS-CoV Urbani / Binding of serum 37 to looped/cyclic peptides of protein M of SARS-CoV Urbani / Binding of serum 6 to linear peptides of protein X3 of SARS-CoV Urbani / Binding of serum 37 to linear peptides of protein X3 of SARS-CoV Urbani / Binding of serum 37 to looped/cyclic peptides of protein X3 of SARS-CoV Urbani / Binding of serum 6 to linear peptides of protein X4 of SARS-CoV Urbani / Binding of serum 37 to linear peptides of protein X4 of SARS-CoV Urbani / Binding of serum 37 to looped/cyclic peptides of protein X4 of SARS-CoV Urbani / Binding of serum 6 to linear peptides of protein X5 of SARS-CoV Urbani / Binding of serum 37 to linear peptides of protein X5 of SARS-CoV Urbani / Binding of serum 37 to looped/cyclic peptides of protein X5 of SARS-CoV Urbani / Binding of serum 6 to linear peptides of protein N of SARS-CoV Urbani / Binding of serum 37 to linear peptides of protein N of SARS-CoV Urbani / Binding of serum 6 to linear peptide (PEPSCAN-ELISA) / Binding of serum 1a to looped/cyclic peptides of protein N of SARS-CoV Urbani / Binding of serum 1b to looped/cyclic peptides of protein N of SARS-CoV Urbani / Binding of serum 2 to looped/cyclic peptides of protein N of SARS-CoV Urbani / Binding of serum 6 to looped/cyclic peptides of protein N of SARS-CoV Urbani / Binding of serum 37 to looped/cyclic peptides of protein N of SARS-CoV Urbani / Binding of serum 62 to looped/cyclic peptides of protein N of SARS-CoV Urbani / Binding of serum London to looped/cyclic peptides of protein N of SARS-CoV Urbani / Binding of serum SARS-green to looped/cyclic peptides of protein N of SARS-CoV Urbani: unit not given here
[2] = test system: control sera (pooled serum of ten healthy LUMC hospital workers; commercial negative donor pooled serum from the Dutch bloodbank); format: binding, human; design: Binding of Control serum LUMC to linear peptides / Binding of Control serum Blood-bank to linear peptides / Binding of Control serum LUMC to looped peptides / Binding of Control Serum Blood-Bank to Looped peptides / Binding of Control serum LUMC to linear peptides of the protein M of SARS-CoV Urbani / Binding of Control serum Blood-bank to linear peptides of the protein M of SARS-CoV Urbani / Binding of Control serum LUMC to looped peptides of the protein M of SARS-CoV Urbani / Binding of Control Serum Blood-Bank to Looped peptides of the protein M of SARS-CoV Urbani: unit not given here
[3] = test system: rabbit serum obtained by immunizing a rabbit with the SARS-CoV strain Frankfurt 1; format: binding; design: Binding of a rabbit serum to linear peptides / Binding of a rabbit serum to looped peptides / Rabbit serum linear peptides / Rabbit serum looped peptides / Binding of a rabbit serum to linear peptides of protein N of SARS-CoV Urbani (Rabbit serum linear peptides) / Binding of a rabbit serum to looped/cyclic peptides of protein N of SARS-CoV Urbani (Rabbit serum looped peptides): unit not given here
[4] = test system: recombinant human anti-SARS-CoV antibody 03-018; format: binding; design: Binding of antibody 03-018 to linear peptides of the N protein of SARS-CoV Urbani / Binding of antibody 03-018 to looped/cyclic peptides of the N protein of SARS-CoV Urbani: unit not given here

## NQLESKVSGKGQQQQ
[1]
  Binding of serum 1a to linear peptide (PEPSCAN-ELISA): 0.3
  Binding of serum 1a to looped/cyclic peptides of protein N of SARS-CoV Urbani: 0.4
  Binding of serum 1b to linear peptide (PEPSCAN-ELISA): 0.2
  Binding of serum 1b to looped/cyclic peptides of protein N of SARS-CoV Urbani: 0.2
  Binding of serum 2 to linear peptide (PEPSCAN-ELISA): 0.3
  Binding of serum 2 to looped/cyclic peptides of protein N of SARS-CoV Urbani: 0.5
  Binding of serum 6 to linear peptide (PEPSCAN-ELISA): 0.2
  Binding of serum 6 to looped/cyclic peptides of protein N of SARS-CoV Urbani: 0.3
  Binding of serum 37 to linear peptide (PEPSCAN-ELISA): 0.7
  Binding of serum 37 to looped/cyclic peptides of protein N of SARS-CoV Urbani: 0.6
  Binding of serum 62 to linear peptide (PEPSCAN-ELISA): 0.8
  Binding of serum 62 to looped/cyclic peptides of protein N of SARS-CoV Urbani: 0.5
  Binding of serum London to linear peptide (PEPSCAN-ELISA): 0.6
  Binding of serum London to looped/cyclic peptides of protein N of SARS-CoV Urbani: 0.5
  Binding of serum SARS-green to linear peptide (PEPSCAN-ELISA): 0.5
  Binding of serum SARS-green to looped/cyclic peptides of protein N of SARS-CoV Urbani: 0.3
  Binding of serum SARS-yellow to linear peptide (PEPSCAN-ELISA): 0.7
  Binding of serum SARS-yellow to looped/cyclic peptides of protein N of SARS-CoV Urbani: 0.6
[2]
  Binding of Control Serum Blood-Bank to Looped peptides: 0.7
  Binding of Control serum Blood-bank to linear peptides: 0.8
  Binding of Control serum LUMC to linear peptides: 0.9
  Binding of Control serum LUMC to looped peptides: 0.7
[3]
  Binding of a rabbit serum to linear peptides of protein N of SARS-CoV Urbani (Rabbit serum linear peptides): 0.2
  Binding of a rabbit serum to looped/cyclic peptides of protein N of SARS-CoV Urbani (Rabbit serum looped peptides): 0.5
[4]
  Binding of antibody 03-018 to linear peptides of the N protein of SARS-CoV Urbani: 0.1
  Binding of antibody 03-018 to looped/cyclic peptides of the N protein of SARS-CoV Urbani: 0.3

## NQNGGRNGARPKQRR
[1]
  Binding of serum 1a to linear peptides of protein N of SARS-CoV Urbani: 0.2
  Binding of serum 1a to looped/cyclic peptides of protein N of SARS-CoV Urbani: 0.2
  Binding of serum 1b to linear peptides of protein N of SARS-CoV Urbani: 0.1
  Binding of serum 1b to looped/cyclic peptides of protein N of SARS-CoV Urbani: 0.1
  Binding of serum 2 to linear peptides of protein N of SARS-CoV Urbani: 0.3
  Binding of serum 2 to looped/cyclic peptides of protein N of SARS-CoV Urbani: 0.2
  Binding of serum 6 to linear peptides of protein N of SARS-CoV Urbani: 0.3
  Binding of serum 6 to looped/cyclic peptides of protein N of SARS-CoV Urbani: 0.2
  Binding of serum 37 to linear peptides of protein N of SARS-CoV Urbani: 0.8
  Binding of serum 37 to looped/cyclic peptides of protein N of SARS-CoV Urbani: 0.4
  Binding of serum 62 to linear peptides of protein N of SARS-CoV Urbani: 0.7
  Binding of serum 62 to looped/cyclic peptides of protein N of SARS-CoV Urbani: 0.3
  Binding of serum London to linear peptides of protein N of SARS-CoV Urbani: 0.5
  Binding of serum London to looped/cyclic peptides of protein N of SARS-CoV Urbani: 0.3
  Binding of serum SARS-green to linear peptides of protein N of SARS-CoV Urbani: 0.5
  Binding of serum SARS-green to looped/cyclic peptides of protein N of SARS-CoV Urbani: 0.2
  Binding of serum SARS-yellow to linear peptides of protein N of SARS-CoV Urbani: 0.6
  Binding of serum SARS-yellow to looped/cyclic peptides of protein N of SARS-CoV Urbani: 0.3
[2]
  Binding of Control Serum Blood-Bank to Looped peptides: 0.6
  Binding of Control serum Blood-bank to linear peptides: 0.7
  Binding of Control serum LUMC to linear peptides: 0.8
  Binding of Control serum LUMC to looped peptides: 0.5
[3]
  Binding of a rabbit serum to linear peptides of protein N of SARS-CoV Urbani (Rabbit serum linear peptides): 0.5
  Binding of a rabbit serum to looped/cyclic peptides of protein N of SARS-CoV Urbani (Rabbit serum looped peptides): 1.1
[4]
  Binding of antibody 03-018 to linear peptides of the N protein of SARS-CoV Urbani: 0.2
  Binding of antibody 03-018 to looped/cyclic peptides of the N protein of SARS-CoV Urbani: 0.2

## NQRSAPRITFGGPTD
[1]
  Binding of serum 1a to linear peptides of protein N of SARS-CoV Urbani: 0.2
  Binding of serum 1a to looped/cyclic peptides of protein N of SARS-CoV Urbani: 0.4
  Binding of serum 1b to linear peptides of protein N of SARS-CoV Urbani: 0.1
  Binding of serum 1b to looped/cyclic peptides of protein N of SARS-CoV Urbani: 0.3
  Binding of serum 2 to linear peptides of protein N of SARS-CoV Urbani: 0.1
  Binding of serum 2 to looped/cyclic peptides of protein N of SARS-CoV Urbani: 0.4
  Binding of serum 6 to linear peptides of protein N of SARS-CoV Urbani: 0.1
  Binding of serum 6 to looped/cyclic peptides of protein N of SARS-CoV Urbani: 0.2
  Binding of serum 37 to linear peptides of protein N of SARS-CoV Urbani: 0.7
  Binding of serum 37 to looped/cyclic peptides of protein N of SARS-CoV Urbani: 0.6
  Binding of serum 62 to linear peptides of protein N of SARS-CoV Urbani: 0.6
  Binding of serum 62 to looped/cyclic peptides of protein N of SARS-CoV Urbani: 0.4
  Binding of serum London to linear peptides of protein N of SARS-CoV Urbani: 0.5
  Binding of serum London to looped/cyclic peptides of protein N of SARS-CoV Urbani: 0.4
  Binding of serum SARS-green to linear peptides of protein N of SARS-CoV Urbani: 0.3
  Binding of serum SARS-green to looped/cyclic peptides of protein N of SARS-CoV Urbani: 0.5
  Binding of serum SARS-yellow to linear peptides of protein N of SARS-CoV Urbani: 0.5
  Binding of serum SARS-yellow to looped/cyclic peptides of protein N of SARS-CoV Urbani: 0.7
[2]
  Binding of Control Serum Blood-Bank to Looped peptides: 0.6
  Binding of Control serum Blood-bank to linear peptides: 0.6
  Binding of Control serum LUMC to linear peptides: 0.5
  Binding of Control serum LUMC to looped peptides: 0.7
[3]
  Binding of a rabbit serum to linear peptides of protein N of SARS-CoV Urbani (Rabbit serum linear peptides): 0.3
  Binding of a rabbit serum to looped/cyclic peptides of protein N of SARS-CoV Urbani (Rabbit serum looped peptides): 0.4
[4]
  Recognition of the peptide by antibody 03-018: recognized
